As usually defined, the koff is a measure of how fast the partners let go of each other. As usually defined, the Ki is the equilibrium dissociation constant of an inhibitor or competing ligand from its target.

Several values for one entry are separate records, joined by “and”; a condition that tells them apart may be missing. Identical values can stand only once. Entries after “also recorded” stand apart in the source; their conditions may differ. Like-named read-outs stand apart in the source and are kept apart here. Marks after values point to notes of the source that are not given here.

In test [1] the test system is Jurkat (T-cell acute lymphoblastic leukemia) cells. The experiment in a line: Toxicity assay in leukemic cell line (cell counting, Annexin V flow cytometry). The test is classed as cell-based, human. The following applies: for sensitivity of cells / inhibition of cell proliferation (cell counting): increasing concentrations. As to the method: (§1) Human leukemic cell lines, HS-Sultan (Burkitt's lymphoma) (European Collection of Cell Cultures, Salisbury, UK), Jurkat (T-cell acute lymphoblastic leukemia) and U937 (histiocytic lymphoma) (American Type Culture Collection, Manassas, USA), were adjusted to 1 × 10^9 cells/l in RPMI-1640 medium containing 1% Penicillin/Streptomycin and 10% fetal bovine serum and grown in triplicate in the presence or absence of CAM or PA–CAM conjugates for 4 days at 37°C, under a humidified 5% CO2 atmosphere. The medium was changed after 2 days of exposure; CAM or PA-CAM addition was repeated after medium change to keep the appropriate drug concentration. Aliquots were collected daily and counted in a CELL-DYN 3700 Hematology Analyzer. For cell necrosis and apoptosis assays, samples (10^6 cells) were collected daily and determined using the Annexin V-PE Apoptosis Detection Kit I (BD Pharmingen) for flow cytometry ([29]), as described by the manufacturer. Flow cytometry data were analyzed using the FlowJo flow cytometry analysis software. Necrotic and apoptotic cells were expressed as a percentage of total cells.
(§2) Figure S2. Toxicity assays in leukemic cell lines. Human leukemic cell lines, HS-Sultan, Jurkat, and U937 were adjusted to 1×10^9 cells/l in RPMI-1640 medium containing 1% Penicillin/Streptomycin and 10% fetal bovine serum and grown in triplicate in the presence or absence of CAM or compound 4 at the indicated concentrations for 5 days at 37°C, under a humidified 5% CO2 atmosphere. Aliquots were collected daily and counted in a CELL-DYN 3700 Hematology Analyzer.
Figure S4. Toxicity assays in Jurkat cells. Jurkat cells were adjusted to 1×10^9 cells/l in RPMI-1640 medium containing 1% Penicillin/Streptomycin and 10% fetal bovine serum and grown in triplicate in the presence or absence of CAM or compound 4 at the indicated concentrations for 4 days at 37°C, under a humidified 5% CO2 atmosphere. Cell necrosis and apoptosis assays were performed as described in Figure S3. Necrotic and apoptotic cells were expressed as a percentage of total cells.
For orientation: In flow cytometry, cells or beads pass a laser one at a time.

Test [2] concerns complex C (poly(U)-programmed ribosomes from E. coli bearing Ac[3H]Phe-tRNA at the P-site), peptidyl transferase. More on the design: method as in PMID 12930958. The following applies: cited from earlier work.
Test [3] has as its system HS-Sultan (Burkitt's lymphoma) cells. The test is described as follows: Toxicity assay in leukemic cell line (cell counting, Annexin V flow cytometry). It counts as cell-based, human. The following applies: for induction of apoptosis (flow cytometry) / induction of necrosis (flow cytometry): 60 μM; for sensitivity of cells / inhibition of cell proliferation (cell counting): increasing concentrations. As to the method: as §1, §2
Figure S3. Toxicity assays in HS-Sultan cells. HS-Sultan cells were adjusted to 1×10^9 cells/l in RPMI-1640 medium containing 1% Penicillin/Streptomycin and 10% fetal bovine serum and grown in triplicate in the presence or absence of CAM or compound 4 at the indicated concentrations for 4 days at 37°C, under a humidified 5% CO2 atmosphere. For cell necrosis and apoptosis assays, samples (10^6 cells) were collected daily and determined using the Annexin V-PE Apoptosis Detection Kit I for flow cytometry. Non-viable and necrotic cells were expressed as a percentage of total cells.

The test system of test [4] is complex C (poly(U)-programmed ribosomes from E. coli bearing Ac[3H]Phe-tRNA at the P-site), peptidyl transferase. The test is described as follows: Inhibition of AcPhe-puromycin synthesis (puromycin reaction, peptide bond formation). The test is classed as biochemical. The following applies: for Ki: 25°C, buffer A. As to the method:
Isolation of 70S ribosomes from E. coli K12 cells and preparation of Ac[^3H]Phe-tRNA^Phe charged to 80% were performed, as described previously ([23]). The post-translocation complex of poly(U)-programmed ribosomes (complex C), bearing tRNA^Phe at the E-site and Ac[^3H]Phe-tRNA at the P-site was prepared in buffer A (100 mM Tris-HCl pH 7.2, 6 mM (CH3COO)2Mg, 100 mM NH4Cl and 6 mM 2-mercaptoethanol). The percentage of active ribosomes in AcPhe-tRNA binding was 72%. This ribosomal population was more than 90% reactive toward puromycin.
The reaction between complex C and excess puromycin (S), a pseudo-substrate which binds to the ribosomal A-site, was performed at 25°C in buffer A and analyzed as described in detail elsewhere ([11]). Briefly, since the reaction followed first-order kinetics, the first-order rate constant kobs at each concentration of puromycin was determined by fitting the corrected x-values into Equation ([1]), (1) where x is the product Ac[^3H]Phe-puromycin expressed as the percentage of complex C radioactivity added in the reaction mixture and t the time of the reaction. kobs is related to the puromycin concentration, [S], by the relationship, (2) where kcat is the catalytic rate constant of PTase and KS the affinity constant of puromycin for complex C.
In the presence of CAM–polyamine conjugates, biphasic logarithmic time plots were obtained. The slope of the straight line through the origin was taken as the value of the apparent rate constant, kobs(early), at the early phase of the reaction, while the slope of the second straight line was taken as the value of the rate constant, kobs(late), at the late phase of the reaction.

For test [5], the system named is central loop of Domain V of 23S rRNA, E. coli ribosomes. The experiment in a line: Time-resolved footprinting of PA–CAM conjugates bound to ribosomes (DMS, kethoxal, CMCT probing, primer extension). The test is classed as binding. The following applies: conjugate at 50 × Ki, 25°C, ratio to control lane R. As to the method:
Complexes RI and R*I were then probed at 37°C for 10 min with DMS, kethoxal or CMCT, as described previously ([30]). The modified sites in 23S rRNA were then analyzed by primer extension with reverse transcriptase, according to Moazed et al. ([30]). […] Extension products were run on 6% polyacrylamide/7M urea gels. Identification of the modified nucleotides, quantitative scanning of the gels and normalization of the band intensities were made as previously described ([4]). The values indicated in Table 2 denote the ratio between the normalized intensity of a band of interest and the normalized intensity of the corresponding band in the control lane (ribosomes non-treated with drugs).

Test [6] deals with U937 (histiocytic lymphoma) cells. The test is described as follows: Toxicity assay in leukemic cell line (cell counting). The following applies: increasing concentrations. The test is classed as cell-based, human. As to the method:
as §1
Figure S2. Toxicity assays in leukemic cell lines. […] Aliquots were collected daily and counted in a CELL-DYN 3700 Hematology Analyzer.

Turning to `O=C(N[C@H](CO)[C@H](O)c1ccc([N+](=O)[O-])cc1)C(Cl)Cl` [CAM, Chloramphenicol], the “induction of apoptosis (flow cytometry)” value in test [1] (60 μM) and in test [3] was “failed to induce apoptosis” each time. In addition, the results for the “induction of necrosis (flow cytometry)” value in test [1] (60 μM) and in test [3] were “failed to induce necrosis/apoptosis” and “induced necrosis”, respectively. The “sensitivity of cells / inhibition of cell proliferation (cell counting)” value in test [1] and in test [3] was “sensitive” each time. Besides, the koff in test [2] is 0.0165 ± 0.00067 s⁻¹. Moreover, the Ki in test [2] (early phase) was 3100 ± 300 nM; in test [2] (late phase), 880 ± 70 nM.

In the case of `NCCCN(CCCCN(Cc1ccccc1)Cc1ccccc1)C(=O)CCC(=O)N[C@H](CO)[C@H](O)c1ccc([N+](=O)[O-])cc1` [Compound 4], the “induction of necrosis (flow cytometry)” value in test [1] (60 μM) is given as “induced necrosis”. Moreover, the “sensitivity of cells / inhibition of cell proliferation (cell counting)” value in test [1] is recorded as “sensitive; also recorded: more effective than CAM”. Also, in test [4] (early phase of the reaction (encounter complex CI)), the Ki was 975 nM and 980 nM. Further, the Ki in test [4] (late phase of the reaction (complex C*I)) worked out at 280 ± 30 nM. Moreover, the “potency relative to CAM, based on Kik7/(k6 + k7)” value in test [4] (overall two-step inhibition of the puromycin reaction) is given as 3 fold. In test [5] (R*I binding state (3 min)), the “Relative reactivity of nucleoside A2058” value is 1.25 ± 0.09^b,c, the “Relative reactivity of nucleoside A2059” value is given as 0.60 ± 0.03^b,c, the “Relative reactivity of nucleoside A2062” value is listed as 0.52 ± 0.02^b,c and the “Relative reactivity of nucleoside A2451” value is listed as 0.53 ± 0.05^b. For the same molecule, in test [5] (R*I binding state (3 min)), the “Relative reactivity of nucleoside A2602” value is recorded as 0.88 ± 0.08, the “Relative reactivity of nucleoside G2505” value is 0.35 ± 0.02^b,c, the “Relative reactivity of nucleoside U2506” value is 0.65 ± 0.04^b and the “Relative reactivity of nucleoside U2585” value was 0.45 ± 0.02^b,c. In test [5] (R*I binding state (3 min)), the “Relative reactivity of nucleoside U2609” value is reported as 1.00 ± 0.07. In addition, in test [5] (RI binding state (2 s)), the “Relative reactivity of nucleoside A2058” value is listed as 1.00 ± 0.05, the “Relative reactivity of nucleoside A2059” value is 1.00 ± 0.06, the “Relative reactivity of nucleoside A2062” value is given as 1.00 ± 0.05 and the “Relative reactivity of nucleoside A2451” value is reported as 0.48 ± 0.02^b. Besides, in test [5] (RI binding state (2 s)), the “Relative reactivity of nucleoside A2602” value was found to be 1.00 ± 0.10, the “Relative reactivity of nucleoside G2505” value was 0.65 ± 0.05^b, the “Relative reactivity of nucleoside U2506” value is 0.70 ± 0.05^b and the “Relative reactivity of nucleoside U2609” value was found to be 1.00 ± 0.09. Moreover, the “sensitivity of cells (cell counting)” value in test [6] was “insensitive”. In addition, in test [3], the “induction of apoptosis (flow cytometry)” value is “apoptosis to HS-Sultan cells”, the “induction of necrosis (flow cytometry)” value is “induced necrosis” and the “sensitivity of cells / inhibition of cell proliferation (cell counting)” value is “sensitive; also recorded: more effective than CAM”.

The values are drawn from article PMC4117768, “Conjugation with polyamines enhances the antibacterial and anticancer activity of chloramphenicol” (Nucleic Acids Research, 2014).
